{"source": "paper PMC6614840", "about": "(2019)", "key": {"[1]": {"system": "wild-type lysC aptamer (three-strand smFRET construct LMS/1-5V2/DNA-bi) (RNA, riboswitch, internal amino modifier (N) for Cy5 between 25 and 26 of strand 2; strand 3 is a DNA tether) GCGGUGAAGAUAGAGGUGCGAACUUCAAGAGUAUGCCUUUGGAGAAAGAUGGAUUCUGUGAAAAAGGCUGAAAGGGGAGCGUCGCCGAAGCAAAUAAAACCCCAUCGGUAUUAUUUGCUGGCCGUGCAUUGAAUAAAUGUAAGGCUGUCAAGAAGCAUCGUUCAAGCGUUUUUUAUGCUUGGAAGAUAAGAA/CCGAUGCUUCUUGGAGGGCUAUCUUCACC", "assay": "smFRET histograms, global Hill fit of state occupancies", "conditions": "50 mM Tris pH 7.8"}, "[2]": {"system": "L2X variant (G72C-G76C) (RNA, riboswitch, internal amino modifier (N) for Cy5 between 25 and 26 of strand 2; strand 3 is a DNA tether) GCGGUGAAGAUAGAGGUGCGAACUUCAAGAGUAUGCCUUUGGAGAAACUACCAUUCUGUGAAAAAGGCUGAAAGGGGAGCGUCGCCGAAGCAAAUAAAACCCCAUCGGUAUUAUUUGCUGGCCGUGCAUUGAAUAAAUGUAAGGCUGUCAAGAAGCAUCGUUCAAGCGUUUUUUAUGCUUGGAAGAUAAGAA/CCGAUGCUUCUUGGAGGGCUAUCUUCACC", "assay": "smFRET histograms", "conditions": "ligand-bound FRET state not formed even at high Mg2+ or lysine"}, "[3]": {"system": "wild-type lysC aptamer (three-strand smFRET construct LMS/1-5V2/DNA-bi) (RNA, riboswitch, internal amino modifier (N) for Cy5 between 25 and 26 of strand 2; strand 3 is a DNA tether) GCGGUGAAGAUAGAGGUGCGAACUUCAAGAGUAUGCCUUUGGAGAAAGAUGGAUUCUGUGAAAAAGGCUGAAAGGGGAGCGUCGCCGAAGCAAAUAAAACCCCAUCGGUAUUAUUUGCUGGCCGUGCAUUGAAUAAAUGUAAGGCUGUCAAGAAGCAUCGUUCAAGCGUUUUUUAUGCUUGGAAGAUAAGAA/CCGAUGCUUCUUGGAGGGCUAUCUUCACC", "assay": "smFRET histograms", "conditions": "Na+ in place of K+; ligand-bound FRET state not formed efficiently"}, "[4]": {"system": "L4X variant (A156/157C) (RNA, riboswitch, internal amino modifier (N) for Cy5 between 25 and 26 of strand 2; strand 3 is a DNA tether) GCGGUGAAGAUAGAGGUGCGAACUUCAAGAGUAUGCCUUUGGAGAAAGAUGGAUUCUGUGAAAAAGGCUGAAAGGGGAGCGUCGCCGAAGCAAAUAAAACCCCAUCGGUAUUAUUUGCUGGCCGUGCAUUGCCUAAAUGUAAGGCUGUCAAGAAGCAUCGUUCAAGCGUUUUUUAUGCUUGGAAGAUAAGAA/CCGAUGCUUCUUGGAGGGCUAUCUUCACC", "assay": "smFRET histograms", "conditions": "ligand-bound FRET state not formed even at high Mg2+ or lysine"}, "[5]": {"system": "wild-type lysC aptamer (three-strand smFRET construct LMS/1-5V2/DNA-bi) (RNA, riboswitch, internal amino modifier (N) for Cy5 between 25 and 26 of strand 2; strand 3 is a DNA tether) GCGGUGAAGAUAGAGGUGCGAACUUCAAGAGUAUGCCUUUGGAGAAAGAUGGAUUCUGUGAAAAAGGCUGAAAGGGGAGCGUCGCCGAAGCAAAUAAAACCCCAUCGGUAUUAUUUGCUGGCCGUGCAUUGAAUAAAUGUAAGGCUGUCAAGAAGCAUCGUUCAAGCGUUUUUUAUGCUUGGAAGAUAAGAA/CCGAUGCUUCUUGGAGGGCUAUCUUCACC", "assay": "smFRET kinetics, KD,fold x KD,bind", "conditions": "100 mM K+, 2 mM Mg2+; 50 mM Tris pH 7.8; apparent"}, "[6]": {"system": "BPX variant (G39C) (RNA, riboswitch, internal amino modifier (N) for Cy5 between 25 and 26 of strand 2; strand 3 is a DNA tether) GCGGUGAAGAUAGACGUGCGAACUUCAAGAGUAUGCCUUUGGAGAAAGAUGGAUUCUGUGAAAAAGGCUGAAAGGGGAGCGUCGCCGAAGCAAAUAAAACCCCAUCGGUAUUAUUUGCUGGCCGUGCAUUGAAUAAAUGUAAGGCUGUCAAGAAGCAUCGUUCAAGCGUUUUUUAUGCUUGGAAGAUAAGAA/CCGAUGCUUCUUGGAGGGCUAUCUUCACC", "assay": "smFRET histograms", "conditions": "ligand-bound FRET state not formed even at high Mg2+ or lysine"}}, "data": [{"smiles": "NCCCC[C@H](N)C(=O)O", "values": [{"measurement": "KD", "setting": "[1]; 100 mM K+, 2 mM Mg2+, Figure 4 legend prints 4.5 ± 1 μM", "result": "3 ± 1", "unit": "µM"}, {"measurement": "KD", "setting": "[1]; no K+, 10 mM Mg2+, Hill coefficient 1.1 ± 0.2", "result": "850 ± 35", "unit": "µM"}, {"measurement": "binding", "setting": "[2]", "result": "no"}, {"measurement": "binding", "setting": "[3]", "result": "weak"}, {"measurement": "binding", "setting": "[4]", "result": "no"}, {"measurement": "KD, app", "setting": "[5]", "result": "11 ± 7", "unit": "µM"}, {"measurement": "binding", "setting": "[6]", "result": "no"}]}]}
